Assay results from US9029384B2, “Phosphatidylinositol 3-kinase inhibitors” (Gilead Calistoga LLC, priority 2012, dated 2015).

test system: basophils; test: Basophil activation in human whole blood (Flow2 CAST kit, CD63 positive cells); format: cell-based; conditions: Homo sapiens, basophils activated with anti-FcεRI mAb or fMLP, geometric mean
Description: Effect on basophil activation was measured in human whole blood using the Flow2 CAST® kit (Buhlmann Laboratories AG, Baselstrasse, Switzerland) following the protocol provided by the manufacturer with minor modifications. Human whole blood was collected into K2-EDTA venipuncture tubes. Whole blood samples were treated with either DMSO (0.3% final) or a serial dilution of compounds in DMSO for 60 minutes at 37° C. Basophils were then activated either with anti-FcεRI mAb or with fMLP. To activate basophils using the anti-FcεRI mAb; 50 μl of whole blood was mixed with 110 μl of stimulation buffer (B-BAT-STB) and 20 μl of anti-FcεRI (B-BAT-STCON). To activate basophils with fMLP; 50 μl of whole blood was mixed with 80 μl of stimulation buffer (B-BAT-STB) and 50 μl of fMLP (B-CCR-FMLP). Stimulation buffer was used as a negative control. 20 μl of the staining reagent (combination of anti-human CD63-FITC and anti-human CCR3-PE mAbs) was then added to each tube. […] Subsequently, erythrocytes were lysed and fixed by the addition of 2 ml of lysing solution (B-BAT-LYR) for 10 min at room temperature. Cells were pelleted by centrifugation at 1200 rpm for 10 min at room temperature in a swing-out rotor. Supernatant was aspirated and cell pellet resuspended in 400 μl of wash buffer. Flow cytometric analysis of the basophil activation was performed on a FC500MPL flow cytometer (Beckman Coulter Inc., Fullerton, Calif.). CCR3-staining and side scatter were applied to gate at least 200 basophils that expressed a high density of CCR3. The percent CD63 positive cells within the gated basophil population were determined in different treatment groups and normalized to the vehicle control (0.3% DMSO) with anti-FcεRI mAb of fMLP stimulus as 100%. Final compound concentration was adjusted to correct for dilution effect of added reagents. The EC50 values were calculated from the analysis of the dose-response curves to a four-parameter equation. All EC50 values represent geometric mean values and are reported in units of nM.

Compared with `COc1cc(-n2c(C(C)Nc3nc(N)nc(N)c3C#N)nc3cccc(Cl)c3c2=O)ccc1C` (single isomer, unassigned) [Compound 184a], `CC(Nc1nc(N)nc(N)c1C#N)c1nc2cccc(C(F)F)c2c(=O)n1-c1ccccc1` (single isomer, unassigned) [Compound 62a] is lower in EC50: over 50 nM for the first, under 1 nM for the second. The second is the more potent here.

target: T1, PI3Kδ (Homo sapiens, UniProt O00329); test: Enzymatic activity of PI3K isoforms, TR-FRET assay (PIP3 formation); format: biochemical; conditions: PI3Kδ; TR-FRET, 2×Km ATP, 10 μM PIP2; read-out: IC50
T1 construct: made in house
Source text: Enzymatic Activity of PI3K Isoforms
The TR-FRET assay was used to monitor formation of the product 3,4,5-inositol triphosphate molecule (PIP3) as it competed with fluorescently labeled PIP3 for binding to the GRP-1 pleckstrin homology domain protein. An increase in […] product results in a decrease in TR-FRET signal as the labeled fluorophore is displaced from the GRP-1 protein binding site.
Class I PI3K isoforms were expressed and purified as heterodimeric recombinant proteins. All assay reagents and buffers for the TR-FRET assay were purchased from Millipore. […] After an assay reaction time of 30 minutes at 25° C., reactions were terminated with a final concentration of 10 mM EDTA, 10 nM labeled-PIP3, and 35 nM Europium labeled GRP-1 detector protein before reading TR-FRET on an Envision plate reader (Ex: 340 nm; Em: 615/665 nm; 100 μs delay and 500 μs read window).
Data are normalized based on a positive (1 uM wortmanin) and negative (DMSO) controls. The α, β, δ, and γ IC50 values were calculated from the fit of the dose-response curves to a four-parameter equation. IC50 are reported in units of nM.
IC50 values were obtained for all PI3K isoforms (α, β, δ, and γ), and Table 2 summarizes the IC50 data collected for PI3Kδ in this Example B1.

T1 sequence (O00329 whole entry, canonical isoform): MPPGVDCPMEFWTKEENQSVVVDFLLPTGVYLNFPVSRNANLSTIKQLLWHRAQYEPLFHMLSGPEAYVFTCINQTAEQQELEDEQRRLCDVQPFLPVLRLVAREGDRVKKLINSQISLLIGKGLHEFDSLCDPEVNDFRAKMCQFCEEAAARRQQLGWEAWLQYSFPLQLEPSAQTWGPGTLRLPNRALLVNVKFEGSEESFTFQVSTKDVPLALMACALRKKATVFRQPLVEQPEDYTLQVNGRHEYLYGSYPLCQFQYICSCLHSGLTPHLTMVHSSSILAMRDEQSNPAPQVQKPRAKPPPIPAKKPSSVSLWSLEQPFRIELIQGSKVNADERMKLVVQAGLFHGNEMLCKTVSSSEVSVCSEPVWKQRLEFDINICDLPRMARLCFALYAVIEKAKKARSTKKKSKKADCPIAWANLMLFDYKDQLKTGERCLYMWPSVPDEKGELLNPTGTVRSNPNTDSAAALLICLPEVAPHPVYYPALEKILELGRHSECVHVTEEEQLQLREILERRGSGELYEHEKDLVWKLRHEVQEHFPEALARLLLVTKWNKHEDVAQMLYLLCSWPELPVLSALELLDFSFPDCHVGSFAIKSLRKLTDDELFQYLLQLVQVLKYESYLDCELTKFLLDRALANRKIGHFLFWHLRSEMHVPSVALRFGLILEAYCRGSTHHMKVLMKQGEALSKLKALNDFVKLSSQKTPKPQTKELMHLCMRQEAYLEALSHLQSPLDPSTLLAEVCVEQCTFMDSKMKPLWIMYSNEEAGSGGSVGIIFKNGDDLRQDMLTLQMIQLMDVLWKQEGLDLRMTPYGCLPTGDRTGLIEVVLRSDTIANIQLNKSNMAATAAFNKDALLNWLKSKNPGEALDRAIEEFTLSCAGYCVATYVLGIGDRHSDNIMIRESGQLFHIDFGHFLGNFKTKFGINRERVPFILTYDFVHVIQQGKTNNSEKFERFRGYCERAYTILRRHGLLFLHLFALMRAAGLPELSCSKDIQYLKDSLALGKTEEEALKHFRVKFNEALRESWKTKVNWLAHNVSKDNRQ
T1 sequence (P27986 whole entry partner, canonical isoform): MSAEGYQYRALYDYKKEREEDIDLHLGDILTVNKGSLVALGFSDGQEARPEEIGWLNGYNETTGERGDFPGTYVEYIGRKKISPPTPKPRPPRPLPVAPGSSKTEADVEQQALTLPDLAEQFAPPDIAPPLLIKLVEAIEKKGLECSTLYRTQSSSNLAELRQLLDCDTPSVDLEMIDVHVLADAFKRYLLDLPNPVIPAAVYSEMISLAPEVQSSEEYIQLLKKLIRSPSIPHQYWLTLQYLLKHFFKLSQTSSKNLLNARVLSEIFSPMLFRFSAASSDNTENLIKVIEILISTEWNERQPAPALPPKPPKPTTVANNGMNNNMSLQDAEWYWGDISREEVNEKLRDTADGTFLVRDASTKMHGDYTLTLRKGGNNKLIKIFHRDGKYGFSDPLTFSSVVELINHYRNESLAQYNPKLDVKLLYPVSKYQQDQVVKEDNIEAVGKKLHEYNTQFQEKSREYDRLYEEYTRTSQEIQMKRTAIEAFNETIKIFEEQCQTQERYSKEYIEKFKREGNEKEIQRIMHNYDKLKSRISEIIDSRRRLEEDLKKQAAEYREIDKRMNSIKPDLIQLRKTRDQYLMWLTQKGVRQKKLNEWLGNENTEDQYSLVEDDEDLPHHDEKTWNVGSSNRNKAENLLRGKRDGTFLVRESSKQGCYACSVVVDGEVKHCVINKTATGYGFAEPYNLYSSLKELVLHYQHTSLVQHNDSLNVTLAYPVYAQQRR

First: Cc1cccc2c(=O)n(-c3cccc(C(F)(F)F)c3)c(C(C)Nc3nc(N)nc(N)c3C#N)nc12 (single isomer, unassigned) [Compound 39a]
Second: CC(Nc1nc(N)nc(N)c1C#N)c1nc2c(C(F)(F)F)cccc2c(=O)n1-c1cc(F)cc(F)c1 (single isomer, unassigned) [Compound 34a]
The IC50 of the first is lower: 10 to 50 nM for the first, over 50 nM for the second.

`COc1cc(-n2c(C(C)Nc3nc(N)nc(N)c3C#N)nc3cccc(Cl)c3c2=O)ccc1C` (single isomer, unassigned) [Compound 184a] and `COc1cccc(-n2c(C(C)Nc3nc(N)nc(N)c3C#N)nc3cccc(Cl)c3c2=O)c1C` (single isomer, unassigned) [Compound 109a-1] fall in the same range of IC50: 10 to 50 nM for the first, 10 to 50 nM for the second.

Compared with `CC(Nc1nc(N)nc(N)c1C#N)c1nc2cccc(C(F)F)c2c(=O)n1-c1ccccc1` (single isomer, unassigned) [Compound 62a], `CC(Nc1nc(N)nc(N)c1C#N)c1nc2cccc(C(=O)O)c2c(=O)n1-c1ccccc1` (single isomer, unassigned) [Compound 162a, 2-(1-((2,6-diamino-5-cyanopyrimidin-4-yl)amino)ethyl)-4-oxo-3-phenyl-3,4-dihydroquinazoline-5-carboxylic acid] is higher in IC50: under 1 nM for the first, over 50 nM for the second.

Compared with `Cc1c(-n2c(C(C)Nc3nc(N)nc(N)c3C#N)nc3cccc(Cl)c3c2=O)ccc(F)c1F` (single isomer, unassigned) [Compound 204a-1], `COc1cc(F)cc(-n2c(C(C)Nc3nc(N)nc(N)c3C#N)nc3cccc(Cl)c3c2=O)c1C` (single isomer, unassigned) [Compound 110a-1] is higher in IC50: 10 to 50 nM for the first, over 50 nM for the second. The first is the more potent here.

`CC(Nc1nc(N)nc(N)c1C#N)c1nc2cccc(F)c2c(=O)n1-c1cc(C(F)(F)F)cc(C(F)(F)F)c1` (single isomer, unassigned) [Compound 88a] and `CC(Nc1nc(N)nc(N)c1C#N)c1nc2cccc(F)c2c(=O)n1-c1cc(F)cc(C(F)(F)F)c1` (single isomer, unassigned) [Compound 33a] cannot be ordered by IC50: over 50 nM for the first, over 50 nM for the second.

First: CCc1cccc2c(=O)n(-c3cc(F)cc(F)c3)c(C(C)Nc3nc(N)nc(N)c3C#N)nc12 (single isomer, unassigned) [Compound 103a]
Second: COc1cccc2c(=O)n(-c3cc(F)cc(F)c3)c(C(C)Nc3nc(N)nc(N)c3C#N)nc12 (single isomer, unassigned) [Compound 68a]
The IC50 of the first is lower: 10 to 50 nM for the first, over 50 nM for the second. The first is the more potent here.

`N#Cc1c(N)nc(N)nc1NC(CC(F)(F)F)c1nc2ccc(F)cc2c(=O)n1-c1cc(F)cc(F)c1` (single isomer, unassigned) [Compound 133a] and `N#Cc1c(N)nc(N)nc1NC(CC(F)(F)F)c1nc2cccc(F)c2c(=O)n1-c1cc(F)cc(F)c1` (single isomer, unassigned) [Compound 166a] cannot be ordered by IC50: over 50 nM for the first, over 50 nM for the second.

First: CC(Nc1nc(N)nc(N)c1C#N)c1nc2cccc(Br)c2c(=O)n1-c1cccc(F)c1 (single isomer, unassigned) [Compound 130a]
Second: CC(Nc1nc(N)nc(N)c1C#N)c1nc2cccc(F)c2c(=O)n1-c1cc(F)cc(C#N)c1 (single isomer, unassigned) [Compound 32a]
The IC50 of the first is lower: under 1 nM for the first, 10 to 50 nM for the second. The first is the more potent here.

First: CCC(Nc1nc(N)nc(N)c1C#N)c1nc2ccc(Cl)c(F)c2c(=O)n1-c1cc(F)cc(F)c1 (single isomer, unassigned) [Compound 86a]
Second: CCC(Nc1nc(N)nc(N)c1C#N)c1nc2ccc(F)c(F)c2c(=O)n1-c1cc(F)cc(F)c1 (single isomer, unassigned) [Compound 30a]
The IC50 of the first is higher: over 50 nM for the first, 10 to 50 nM for the second. The second is the more potent here.

First: CCC(Nc1nc(N)nc(N)c1Cl)c1nc2cccc(F)c2c(=O)n1-c1cc(F)cc(F)c1 (single isomer, unassigned) [Compound 105a]
Second: CCC(Nc1nc(N)nc(N)c1C#N)c1nc2cccc(F)c2c(=O)n1-c1cc(F)cc(C(F)F)c1 (single isomer, unassigned) [Compound 65a]
The IC50 of the first is higher: over 50 nM for the first, 10 to 50 nM for the second.

`Cc1c(-n2c(C(C)Nc3nc(N)nc(N)c3C#N)nc3cccc(Cl)c3c2=O)ccc(F)c1F` (single isomer, unassigned) [Compound 204a-2] and `COc1cc(F)cc(-n2c(C(C)Nc3nc(N)nc(N)c3C#N)nc3cccc(Cl)c3c2=O)c1C` (single isomer, unassigned) [Compound 110a-2] fall in the same range of IC50: 1 to 10 nM for the first, 1 to 10 nM for the second.

`CC(Nc1nc(N)nc(N)c1C#N)c1nc2cccc(Cl)c2c(=O)n1-c1cc(C#N)cc(C#N)c1` (single isomer, unassigned) [Compound 87a] and `CC(Nc1nc(N)nc(N)c1C#N)c1nc2cccc(C#N)c2c(=O)n1-c1cc(F)cc(C#N)c1` (single isomer, unassigned) [Compound 113a] cannot be ordered by IC50: over 50 nM for the first, over 50 nM for the second.

`CC(Nc1nc(N)nc(N)c1C#N)c1nc2c(C(F)F)cccc2c(=O)n1-c1cc(F)cc(F)c1` (single isomer, unassigned) [Compound 57a] and `CC(Nc1nc(N)nc(N)c1C#N)c1nc2cc(F)c(F)cc2c(=O)n1-c1cc(F)cc(F)c1` (single isomer, unassigned) [Compound 79a] fall in the same range of IC50: 10 to 50 nM for the first, 10 to 50 nM for the second.

`CC(Nc1nc(N)nc(N)c1C#N)c1nc2ccc(Cl)c(F)c2c(=O)n1-c1cc(F)cc(F)c1` (single isomer, unassigned) [Compound 85a] and `N#Cc1c(N)nc(N)nc1NC(CC(F)(F)F)c1nc2cccc(Cl)c2c(=O)n1-c1cc(F)cc(F)c1` (single isomer, unassigned) [Compound 165a] cannot be ordered by IC50: over 50 nM for the first, over 50 nM for the second.

`CC(Nc1nc(N)nc(N)c1C#N)c1nc2cccc(F)c2c(=O)n1-c1cc(Cl)cc(C(F)F)c1` (single isomer, unassigned) [Compound 114a] and `CC(Nc1nc(N)nc(N)c1C#N)c1nc2cccc(F)c2c(=O)n1-c1cc(C(F)F)cc(C(F)F)c1` (single isomer, unassigned) [Compound 136a] cannot be ordered by IC50: over 50 nM for the first, over 50 nM for the second.

First: CCC(Nc1nc(N)nc(N)c1C#N)c1nc2c(F)cc(F)cc2c(=O)n1-c1cc(F)cc(F)c1 (single isomer, unassigned) [Compound 69a]
Second: N#Cc1c(N)nc(N)nc1NCc1nc2cc(F)c(F)cc2c(=O)n1-c1cc(F)cc(F)c1 [Compound 80, 2,4-diamino-6-((3-(3,5-difluorophenyl)-6,7-difluoro-4-oxo-3,4-dihydroquinazolin-2-yl)methylamino)pyrimidine-5-carbonitrile]
The IC50 of the first is lower: 10 to 50 nM for the first, over 50 nM for the second.

First: CC(Nc1nc(N)nc(N)c1C#N)c1nc2cccc(C#N)c2c(=O)n1-c1cc(F)cc(C(F)F)c1 (single isomer, unassigned) [Compound 138a]
Second: CC(Nc1nc(N)nc(N)c1C#N)c1nc2cccc(F)c2c(=O)n1-c1cc(C(F)F)cc(C(F)F)c1 (single isomer, unassigned) [Compound 118a]
The IC50 of the first is lower: 10 to 50 nM for the first, over 50 nM for the second. The first is the more potent here.

`N#Cc1cccc(-n2c(CNc3nc(N)nc(N)c3C#N)nc3c(Cl)cccc3c2=O)c1` [Compound 84, 2,4-diamino-6-((8-chloro-3-(3-cyanophenyl)-4-oxo-3,4-dihydroquinazolin-2-yl)methylamino)pyrimidine-5-carbonitrile] and `CC(Nc1nc(N)nc(N)c1C#N)c1nc2ccc(C#N)cc2c(=O)n1-c1ccccc1` (single isomer, unassigned) [Compound 159a] cannot be ordered by IC50: over 50 nM for the first, over 50 nM for the second.

First: CCC(Nc1nc(N)nc(N)c1C#N)c1nc2cccc(F)c2c(=O)n1-c1cccc(C(F)(F)F)c1 (single isomer, unassigned) [Compound 46a]
Second: N#Cc1c(N)nc(N)nc1NC(CC(F)(F)F)c1nc2ccc(F)cc2c(=O)n1-c1ccccc1 (single isomer, unassigned) [Compound 132a]
The IC50 of the first is lower: 10 to 50 nM for the first, over 50 nM for the second. The first is the more potent here.

First: Cc1ccc(F)c2c(=O)n(-c3cc(F)cc(C#N)c3)c(C(C)Nc3nc(N)nc(N)c3C#N)nc12 (single isomer, unassigned) [Compound 83a]
Second: CC(Nc1nc(N)nc(N)c1S(C)(=O)=O)c1nc2cccc(Cl)c2c(=O)n1-c1cc(F)cc(F)c1 (single isomer, unassigned) [Compound 94a]
The IC50 of the first is lower: 10 to 50 nM for the first, over 50 nM for the second.
